Laboratory results taken from patent US10202389B2, “Pyrazolopyrimidinyl inhibitors of ubiquitin-activating enzyme” (Millennium Pharmaceuticals, Inc., priority 2012, dated 2019).

Target: recombinant human UAE (Homo sapiens (Human), UniProt P22314)
Assay: Ubiquitin Activating Enzyme (UAE) HTRF Assay
Conditions: read-out: % inhibition @0.111 μM
Description: After incubation for 120 minutes, quantification of the FRET is performed on the Pherostar (BMG).
For compounds whose values are marked with an asterisk (*), mouse UAE was used. For all other compounds, human UAE was used.

Sequence of recombinant human UAE (P22314 whole entry): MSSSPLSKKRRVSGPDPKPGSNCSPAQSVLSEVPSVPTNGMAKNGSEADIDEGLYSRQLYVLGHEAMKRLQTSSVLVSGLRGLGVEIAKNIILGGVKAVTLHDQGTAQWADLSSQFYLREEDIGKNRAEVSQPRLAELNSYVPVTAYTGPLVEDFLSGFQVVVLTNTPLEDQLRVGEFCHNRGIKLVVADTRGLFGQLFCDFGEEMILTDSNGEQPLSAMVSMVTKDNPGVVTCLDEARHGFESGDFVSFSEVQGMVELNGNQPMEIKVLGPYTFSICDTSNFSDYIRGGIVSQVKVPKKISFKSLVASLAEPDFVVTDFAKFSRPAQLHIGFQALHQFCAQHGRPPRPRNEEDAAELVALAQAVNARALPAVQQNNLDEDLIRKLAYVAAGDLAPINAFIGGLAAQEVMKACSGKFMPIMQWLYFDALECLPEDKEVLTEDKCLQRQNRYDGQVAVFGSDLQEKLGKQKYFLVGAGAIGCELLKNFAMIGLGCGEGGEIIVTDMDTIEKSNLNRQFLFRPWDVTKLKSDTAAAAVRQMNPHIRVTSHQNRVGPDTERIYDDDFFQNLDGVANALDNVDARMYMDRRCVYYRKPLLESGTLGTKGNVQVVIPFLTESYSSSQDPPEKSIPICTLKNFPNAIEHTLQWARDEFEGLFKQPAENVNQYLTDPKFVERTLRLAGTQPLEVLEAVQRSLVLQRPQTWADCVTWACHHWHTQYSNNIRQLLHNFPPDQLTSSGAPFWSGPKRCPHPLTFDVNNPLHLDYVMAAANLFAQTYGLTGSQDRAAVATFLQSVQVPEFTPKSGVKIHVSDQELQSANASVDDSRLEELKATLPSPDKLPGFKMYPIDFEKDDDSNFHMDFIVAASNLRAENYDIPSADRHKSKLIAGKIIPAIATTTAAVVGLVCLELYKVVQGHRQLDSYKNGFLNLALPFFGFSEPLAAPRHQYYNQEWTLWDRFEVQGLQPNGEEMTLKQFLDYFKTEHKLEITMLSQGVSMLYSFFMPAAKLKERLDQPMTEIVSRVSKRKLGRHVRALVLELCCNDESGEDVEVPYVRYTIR

| Structure (SMILES) | inhibition at 0.111 µM [%] |
| --- | --- |
| NS(=O)(=O)OC[C@H]1C[C@@H](Nc2ccnc3cc(-c4cccc(-c5ccccc5)c4)nn23)[C@H](O)[C@@H]1O (relative stereo) [Compound I-003, (rac)((1R,2R,3S,4R)-4-(2-(biphenyl-3-yl)pyrazolo[1,5-a]pyrimidin-7-ylamino)-2,3-dihydroxycyclopentyl)methyl rel-sulfamate] | 100 |
| CCOC(C)(C)c1cccc(-c2cc3nccc(N[C@@H]4C[C@H](COS(N)(=O)=O)[C@@H](O)[C@H]4O)n3n2)c1 (relative stereo) [Compound I-084, (rac)-((1R,2R,3S,4R)-4-(2-(3-(2-ethoxypropan-2-yl)phenyl)pyrazolo[1,5-a]pyrimidin-7-ylamino)-2,3-dihydroxycyclopentyl)methyl rel-sulfamate] | 100 |
| NS(=O)(=O)OC[C@H]1C[C@@H](Nc2ccnc3cc(-c4cccc(C5CCCC5)c4)nn23)[C@H](O)[C@@H]1O (relative stereo) [Compound I-048, (rac)-[(1R,2R,3S,4R)-4-{[2-(3-cyclopentylphenyl)pyrazolo[1,5-a]pyrimidin-7-yl]amino}-2,3-dihydroxycyclopentyl]methyl rel-sulfamate] | 100 |
| Cn1cc(-c2cccc(-c3cc4nccc(N[C@@H]5C[C@H](COS(N)(=O)=O)[C@@H](O)[C@H]5O)n4n3)c2)cn1 (relative stereo) [Compound I-122, (rac)-[(1R,2R,3S,4R)-2,3-dihydroxy-4-({2-[3-(1-methyl-1H-pyrazol-4-yl)phenyl]pyrazolo[1,5-a]pyrimidin-7-yl}amino)cyclopentyl]methyl rel-sulfamate] | 97 |
| NS(=O)(=O)OC[C@H]1C[C@@H](Nc2ccnc3cc(-c4cccc(OC(F)F)c4)nn23)[C@H](O)[C@@H]1O (relative stereo) [Compound I-050, (rac)-((1R,2R,3S,4R)-4-((2-(3-(Difluoromethoxy)phenyl)pyrazolo[1,5-a]pyrimidin-7-yl)amino)-2,3-dihydroxycyclopentyl)methyl rel-sulfamate] | 100 |
| NS(=O)(=O)OC[C@H]1C[C@@H](Nc2ccnc3cc(-c4cccc(C(F)(F)F)c4)nn23)[C@H](O)[C@@H]1O (relative stereo) [Compound I-007, (rac)-((1R,2R,3S,4R)-2,3-Dihydroxy-4-((2-(3-(trifluoromethyl)phenyl)pyrazolo[1,5-a]pyrimidin-7-yl)amino)cyclopentyl)methyl rel-sulfamate] | 99 |
| CCc1ccc2scc(-c3cc4nccc(N[C@@H]5C[C@H](COS(N)(=O)=O)[C@@H](O)[C@H]5O)n4n3)c2c1 (relative stereo) [Compound I-094, (rac)-((1R,2R,3S,4R)-4-(2-(5-ethylbenzo[b]thiophen-3-yl)pyrazolo[1,5-a]pyrimidin-7-ylamino)-2,3-dihydroxycyclopentyl)methyl rel-sulfamate] | 100 |
| NS(=O)(=O)OC[C@H]1C[C@@H](Nc2ccnc3cc(-c4ccc(Cl)cc4Cl)nn23)[C@H](O)[C@@H]1O (relative stereo) [Compound I-013, (rac)-[(1R,2R,3S,4R)-4-{[2-(2,4-dichlorophenyl)pyrazolo[1,5-a]pyrimidin-7-yl]amino}-2,3-dihydroxycyclopentyl]methyl rel-sulfamate] | 84 |
| NS(=O)(=O)OC[C@H]1C[C@@H](Nc2ccnc3cc(-c4ccc5[nH]c6ccccc6c5c4)nn23)[C@H](O)[C@@H]1O (relative stereo) [Compound I-037, (rac)-[(1R,2R,3S,4R)-4-{[2-(9H-carbazol-3-yl)pyrazolo[1,5-a]pyrimidin-7-yl]amino}-2,3-dihydroxycyclopentyl]methyl rel-sulfamate] | 100 |
| CN(C)c1ccc(-c2cc3nccc(N[C@@H]4C[C@H](COS(N)(=O)=O)[C@@H](O)[C@H]4O)n3n2)c2ccccc12 [Compound I-107, (s.e.)-((1R,2R,3S,4R)-4-(2-(4-(dimethylamino)naphthalen-1-yl)pyrazolo[1,5-a]pyrimidin-7-ylamino)-2,3-dihydroxycyclopentyl)methyl sulfamate] | 100 |
| NS(=O)(=O)OC[C@H]1C[C@@H](Nc2cc(Cl)nc3cc(-c4ccccc4)nn23)[C@H](O)[C@@H]1O (relative stereo) [Compound I-006, (rac)-{(1R,2R,3S,4R)-4-[(5-chloro-2-phenylpyrazolo[1,5-a]pyrimidin-7-yl)amino]-2,3-dihydroxycyclopentyl}methyl rel-sulfamate] | 23 |
| CC(CO)(CCl)c1cccc(-c2cc3nccc(N[C@@H]4C[C@H](COS(N)(=O)=O)[C@@H](O)[C@H]4O)n3n2)c1 (relative stereo) [Compound I-123, (rac)-{(1R,2R,3S,4R)-4-[(2-{3-[2-chloro-1-(hydroxymethyl)-1-methylethyl]phenyl}pyrazolo[1,5-a]pyrimidin-7-yl)amino]-2,3-dihydroxycyclopentyl}methyl rel-sulfamate] | 100 |
| NS(=O)(=O)OC[C@H]1C[C@@H](Nc2ccnc3cc(-c4cc(C(F)(F)F)ccc4Cl)nn23)[C@H](O)[C@@H]1O (relative stereo) [Compound I-030, (rac)-((1R,2R,3S,4R)-4-((2-(2-Chloro-5-(trifluoromethyl)phenyl)pyrazolo[1,5-a]pyrimidin-7-yl)amino)-2,3-dihydroxycyclopentyl)methyl rel-sulfamate] | 99 |
| NS(=O)(=O)OC[C@H]1C[C@@H](Nc2ccnc3cc(-c4cnc(-c5ccccc5)o4)nn23)[C@H](O)[C@@H]1O (relative stereo) [Compound I-067, (rac)-[(1R,2R,3S,4R)-2,3-dihydroxy-4-{[2-(2-phenyl-1,3-oxazol-5-yl)pyrazolo[1,5-a]pyrimidin-7-yl]amino}cyclopentyl]methyl rel-sulfamate] | 100 |
| Cc1cnc2cc(-c3ccccc3)nn2c1N[C@@H]1C[C@H](COS(N)(=O)=O)[C@@H](O)[C@H]1O (relative stereo) [Compound I-089, (rac)-{(1R,2R,3S,4R)-2,3-dihydroxy-4-[(6-methyl-2-phenylpyrazolo[1,5-a]pyrimidin-7-yl)amino]cyclopentyl}methyl rel-sulfamate] | 27 |
| NS(=O)(=O)OC[C@H]1C[C@@H](Nc2ccnc3cc(-c4cccc(OC(F)(F)F)c4)nn23)[C@H](O)[C@@H]1O (relative stereo) [Compound I-040, (rac)-((1R,2R,3S,4R)-2,3-Dihydroxy-4-((2-(3-(trifluoromethoxy)phenyl)pyrazolo[1,5-a]pyrimidin-7-yl)amino)cyclopentyl)methyl rel-sulfamate] | 100 |
| NS(=O)(=O)OC[C@H]1C[C@@H](Nc2ccnc3cc(-c4cccc(C(=O)c5ccccc5)c4)nn23)[C@H](O)[C@@H]1O (relative stereo) [Compound I-073, (rac)-((1R,2R,3S,4R)-4-(2-(3-benzoylphenyl)pyrazolo[1,5-a]pyrimidin-7-ylamino)-2,3-dihydroxycyclopentyl)methyl rel-sulfamate] | 91 |
| NS(=O)(=O)OC[C@H]1C[C@@H](Nc2ccnc3cc(-c4ccc(Cl)c5ccccc45)nn23)[C@H](O)[C@@H]1O [Compound I-108, (s.e.)-[(1R,2R,3S,4R)-4-{[2-(4-chloro-1-naphthyl)pyrazolo[1,5-a]pyrimidin-7-yl]amino}-2,3-dihydroxycyclopentyl]methyl sulfamate] | 100 |
| NS(=O)(=O)OC[C@H]1C[C@@H](Nc2ccnc3cc(-c4ccnc5cc(Cl)ccc45)nn23)[C@H](O)[C@@H]1O (relative stereo) [Compound I-039, (rac)-((1R,2R,3S,4R)-4-(2-(7-chloroquinolin-4-yl)pyrazolo[1,5-a]pyrimidin-7-ylamino)-2,3-dihydroxycyclopentyl)methyl rel-sulfamate] | 100 |
| NS(=O)(=O)OC[C@H]1C[C@@H](Nc2ccnc3cc(-c4ccc5ncccc5c4)nn23)[C@H](O)[C@@H]1O (relative stereo) [Compound I-034, (rac)-((1R,2R,3S,4R)-2,3-dihydroxy-4-(2-(quinolin-6-yl)pyrazolo[1,5-a]pyrimidin-7-ylamino)cyclopentyl)methyl rel-sulfamate] | 100 |
| NS(=O)(=O)OC[C@H]1C[C@@H](Nc2ccnc3cc(-c4cc5ccc(Cl)cc5s4)nn23)[C@H](O)[C@@H]1O (relative stereo) [Compound I-088, (rac)-((1R,2R,3S,4R)-4-(2-(6-chlorobenzo[b]thiophen-2-yl)pyrazolo[1,5-a]pyrimidin-7-ylamino)-2,3-dihydroxycyclopentyl)methyl rel-sulfamate] | 97 |
| NS(=O)(=O)OC[C@H]1C[C@@H](Nc2ccnc3cc(-c4cccc(N5CCCC5=O)c4)nn23)[C@H](O)[C@@H]1O (relative stereo) [Compound I-087, (rac)-((1R,2R,3S,4R)-2,3-dihydroxy-4-(2-(3-(2-oxopyrrolidin-1-yl)phenyl)pyrazolo[1,5-a]pyrimidin-7-ylamino)cyclopentyl)methyl rel-sulfamate] | 100 |
| NS(=O)(=O)OC[C@H]1C[C@@H](Nc2ccnc3cc(-c4ccc5ccccc5c4)nn23)[C@H](O)[C@@H]1O (relative stereo) [Compound I-016, (rac)-((1R,2R,3S,4R)-2,3-dihydroxy-4-(2-(naphthalen-2-yl)pyrazolo[1,5-a]pyrimidin-7-ylamino)cyclopentyl)methyl rel-sulfamate] | 99 |
| NS(=O)(=O)OC[C@H]1C[C@@H](Nc2ccnc3cc(-c4cccc(N5CCCC5)c4)nn23)[C@H](O)[C@@H]1O (relative stereo) [Compound I-046, (rac)-((1R,2R,3S,4R)-2,3-dihydroxy-4-(2-(3-(pyrrolidin-1-yl)phenyl)pyrazolo[1,5-a]pyrimidin-7-ylamino)cyclopentyl)methyl rel-sulfamate] | 100 |
| NS(=O)(=O)OC[C@H]1C[C@@H](Nc2ccnc3cc(-c4ccc(C(F)(F)F)c5cccnc45)nn23)[C@H](O)[C@@H]1O (relative stereo) [Compound I-033, (rac)-((1R,2R,3S,4R)-2,3-dihydroxy-4-(2-(5-(trifluoromethyl)quinolin-8-yl)pyrazolo[1,5-a]pyrimidin-7-ylamino)cyclopentyl)methyl rel-sulfamate] | 98 |
